{"source": "patent US20250352610A1", "about": "“NOVEL COMPOSITION” (Arecor Limited, priority 2022, published 2025)", "origin": "cited, not measured here", "details": "excipients of VancoReady; black box warning", "data": [{"smiles": "CC(=O)N[C@H](C)C(=O)O", "note": "[N-acetyl-D-alanine]", "values": [{"measurement": "Fetal malformations in animal reproductive studies", "result": "cause fetal malformations"}]}]}
